{
  "source": "patent US20190105337A1",
  "about": "“METHODS OF TREATING BACTERIAL INFECTIONS” (priority 2015, published 2019)",
  "key": {"[1]": {"test": "Example 5: expected Compound I free drug 24 h AUC according to dosage regimen, by individual subject (Table B)", "parameters": "species or system human", "settings": "for Expected Compound I free drug 24 h AUC: individual subjects", "source_text": "Table B provides a summary of the analysis of different Compound I dosing regimens by individual subjects enrolled the study."}, "[2]": {"test": "Example 1: safety and tolerability of Compound I in healthy adult subjects", "type": "in vivo, human", "method": "56 healthy subjects were enrolled into one of 7 cohorts of 8 subjects each in the single ascending dose phase (250 mg, 500 mg, 750 mg, 1000 mg, 1250 mg, 1500 mg and 2000 mg). Thirty-two additional subjects were then enrolled into one of 4 cohorts in the multiple-dose phase (250 mg, 1000 mg, 1500 mg, and 2000 mg, given q8 h for 7 days). […] All infusions were administered over 3 hours. Plasma and urine samples were obtained after single or multiple doses and assayed for Compound I content using a validated HPLC/MS method."}, "P. aeruginosa strains": {"tested_on": "P. aeruginosa strains", "test": "MIC by broth microdilution (CLSI), P. aeruginosa strains", "type": "cell-based", "settings": "Pseudomonas aeruginosa"}, "[3]": {"test": "Example 3: adverse events during the multiple dose phase", "type": "in vivo, human", "method": "All infusions were administered over 3 hours. Intensive plasma and urine PK sampling was obtained after dosing and assayed using validated HPLC/MS methods.\nTable 7 summarizes the number (%) of subjects with at least one treatment emergent AE and number of adverse events during the multiple dose phase. […] All AEs, except 2 were mild or moderate in severity. […] There is no evidence that the addition of Compound I changed the AE profile of meropenem."}, "[4]": {"settings": "2 g q8h, Normal creatinine clearance"}},
  "note": "“And” between values parts separate entries of the source, which are not always exact repeats. Equal entries are not always repeated. Where two headings read alike, the source gives them in different places.",
  "data": [
    {"smiles": "O=C(O)C[C@@H]1CC[C@H](NC(=O)Cc2cccs2)B(O)O1", "note": "[Compound I]", "values": [
      {"measurement": "Expected Compound I free drug 24 h AUC", "setting": "[1]; 500 mg q12h, 10-19 ml/min group", "value": "505.1 µg·h/mL and 427.3 µg·h/mL and 493.6 µg·h/mL and 790.7 µg·h/mL and 830.3 µg·h/mL and 719.6 µg·h/mL"},
      {"measurement": "Expected Compound I free drug 24 h AUC", "setting": "[1]; 500 mg q12h, 30-49 ml/min group", "value": "119.3 µg·h/mL and 129.1 µg·h/mL and 115.2 µg·h/mL and 228.1 µg·h/mL and 251.1 µg·h/mL and 310.6 µg·h/mL"},
      {"measurement": "Expected Compound I free drug 24 h AUC", "setting": "[1]; 500 mg q12h, >50 mL/min group", "value": "70.0 µg·h/mL and 62.7 µg·h/mL and 69.2 µg·h/mL and 88.4 µg·h/mL and 70.7 µg·h/mL and 68.1 µg·h/mL and 108.4 µg·h/mL and 108.0 µg·h/mL"},
      {"measurement": "Expected Compound I free drug 24 h AUC", "setting": "[1]; 500 mg q24h, 10-19 ml/min group", "value": "252.5 µg·h/mL and 213.7 µg·h/mL and 246.8 µg·h/mL and 395.4 µg·h/mL and 415.1 µg·h/mL and 359.8 µg·h/mL"},
      {"measurement": "Expected Compound I free drug 24 h AUC", "setting": "[1]; 500 mg q24h, 30-49 ml/min group", "value": "59.6 µg·h/mL and 64.5 µg·h/mL and 57.6 µg·h/mL and 114.0 µg·h/mL and 125.5 µg·h/mL and 155.3 µg·h/mL"},
      {"measurement": "Expected Compound I free drug 24 h AUC", "setting": "[1]; 500 mg q24h, >50 mL/min group", "value": "35.0 µg·h/mL and 31.4 µg·h/mL and 34.6 µg·h/mL and 44.2 µg·h/mL and 35.4 µg·h/mL and 34.1 µg·h/mL and 54.2 µg·h/mL and 54.0 µg·h/mL"},
      {"measurement": "Expected Compound I free drug 24 h AUC", "setting": "[1]; 1 g q8h, 10-19 ml/min group", "value": "1515.2 µg·h/mL and 1281.9 µg·h/mL and 1480.9 µg·h/mL and 2372.2 µg·h/mL and 2490.8 µg·h/mL and 2158.8 µg·h/mL"},
      {"measurement": "Expected Compound I free drug 24 h AUC", "setting": "[1]; 1 g q8h, 30-49 ml/min group", "value": "357.8 µg·h/mL and 387.2 µg·h/mL and 345.5 µg·h/mL and 684.2 µg·h/mL and 753.3 µg·h/mL and 931.8 µg·h/mL"},
      {"measurement": "Expected Compound I free drug 24 h AUC", "setting": "[1]; 1 g q8h, >50 mL/min group", "value": "210.0 µg·h/mL and 188.2 µg·h/mL and 207.5 µg·h/mL and 265.2 µg·h/mL and 212.1 µg·h/mL and 204.3 µg·h/mL and 325.3 µg·h/mL and 324.0 µg·h/mL"},
      {"measurement": "Expected Compound I free drug 24 h AUC", "setting": "[1]; 1 g q24h, 10-19 ml/min group", "value": "505.1 µg·h/mL and 427.3 µg·h/mL and 493.6 µg·h/mL and 790.7 µg·h/mL and 830.3 µg·h/mL and 719.6 µg·h/mL"},
      {"measurement": "Expected Compound I free drug 24 h AUC", "setting": "[1]; 1 g q24h, 30-49 ml/min group", "value": "119.3 µg·h/mL and 129.1 µg·h/mL and 115.2 µg·h/mL and 228.1 µg·h/mL and 251.1 µg·h/mL and 310.6 µg·h/mL"},
      {"measurement": "Expected Compound I free drug 24 h AUC", "setting": "[1]; 1 g q24h, >50 mL/min group", "value": "70.0 µg·h/mL and 62.7 µg·h/mL and 69.2 µg·h/mL and 88.4 µg·h/mL and 70.7 µg·h/mL and 68.1 µg·h/mL and 108.4 µg·h/mL and 108.0 µg·h/mL"},
      {"measurement": "Expected Compound I free drug 24 h AUC, Mean", "setting": "[1]; [4]", "value": 358, "unit": "µg·h/mL"},
      {"measurement": "Expected Compound I free drug 24 h AUC, Range", "setting": "[1]; [4]", "value": "284 to 470", "unit": "µg·h/mL"},
      {"measurement": "Expected Compound I free drug 24 h AUC", "setting": "[1]; 2 g q8h, 10-19 ml/min group", "value": "3030.3 µg·h/mL and 2563.8 µg·h/mL and 2961.8 µg·h/mL and 4744.3 µg·h/mL and 4981.6 µg·h/mL and 4317.6 µg·h/mL"},
      {"measurement": "Expected Compound I free drug 24 h AUC", "setting": "[1]; 2 g q8h, 30-49 ml/min group", "value": "715.7 µg·h/mL and 774.5 µg·h/mL and 690.9 µg·h/mL and 1368.4 µg·h/mL and 1506.5 µg·h/mL and 1863.5 µg·h/mL"},
      {"measurement": "Expected Compound I free drug 24 h AUC", "setting": "[1]; 2 g q8h, >50 mL/min group", "value": "420.0 µg·h/mL and 376.3 µg·h/mL and 415.0 µg·h/mL and 530.5 µg·h/mL and 424.2 µg·h/mL and 408.7 µg·h/mL and 650.6 µg·h/mL and 648.1 µg·h/mL"},
      {"measurement": "serious adverse events (SAEs)", "setting": "[2]; 250-2000 mg", "value": "no serious adverse events"},
      {"measurement": "severity of AEs", "setting": "[2]; 250-2000 mg", "value": "all AEs were mild or moderate"},
      {"measurement": "safety and tolerability", "setting": "[2]; all doses tested", "value": "safe and well tolerated at all doses tested"}
    ]},
    {"smiles": "C[C@@H](O)[C@H]1C(=O)N2C(C(=O)O)=C(S[C@@H]3CN[C@H](C(=O)N(C)C)C3)[C@H](C)[C@H]12", "note": "[meropenem, Meropenem]", "values": [
      {"measurement": "MIC", "setting": "P. aeruginosa strains; P. aeruginosa PAM3210, read-out: MIC", "value": 2, "unit": "µg/mL"},
      {"measurement": "MIC", "setting": "P. aeruginosa strains; P. aeruginosa PAM3353, read-out: MIC", "value": 8, "unit": "µg/mL"},
      {"measurement": "MIC", "setting": "P. aeruginosa strains; P. aeruginosa PAM3377, read-out: MIC", "value": "4 to 8", "unit": "µg/mL"},
      {"measurement": "MIC", "setting": "P. aeruginosa strains; read-out: Meropenem (w/ 8 mg/L Compound I) MIC, P. aeruginosa PAM3210, w/ 8 mg/L Compound I", "value": 2, "unit": "µg/mL"},
      {"measurement": "MIC", "setting": "P. aeruginosa strains; read-out: Meropenem (w/ 8 mg/L Compound I) MIC, P. aeruginosa PAM3353, w/ 8 mg/L Compound I", "value": 8, "unit": "µg/mL"},
      {"measurement": "MIC", "setting": "P. aeruginosa strains; read-out: Meropenem (w/ 8 mg/L Compound I) MIC, P. aeruginosa PAM3377, w/ 8 mg/L Compound I", "value": "4 to 8", "unit": "µg/mL"},
      {"measurement": "MIC", "setting": "P. aeruginosa strains; read-out: Meropenem MIC, P. aeruginosa PAM3210", "value": 2, "unit": "µg/mL"},
      {"measurement": "MIC", "setting": "P. aeruginosa strains; read-out: Meropenem MIC, P. aeruginosa PAM3353", "value": 8, "unit": "µg/mL"},
      {"measurement": "MIC", "setting": "P. aeruginosa strains; read-out: Meropenem MIC, P. aeruginosa PAM3377", "value": "4 to 8", "unit": "µg/mL"},
      {"measurement": "AEs, Number of Events", "setting": "[3]; Pooled 2 g Meropenem", "value": "[24]"},
      {"measurement": "Moderate or Severe AEs, N subjects", "setting": "[3]; Pooled 2 g Meropenem", "value": 0},
      {"measurement": "Subjects with at least one Treatment Emergent AE, %", "setting": "[3]; Pooled 2 g Meropenem", "value": 80, "unit": "%"},
      {"measurement": "AEs, Number of Events", "setting": "[3]; Pooled Meropenem (1 and 2 g)", "value": "[67]"},
      {"measurement": "Moderate or Severe AEs, % subjects", "setting": "[3]; Pooled Meropenem (1 and 2 g)", "value": 24, "unit": "%"},
      {"measurement": "Moderate or Severe AEs, N subjects", "setting": "[3]; Pooled Meropenem (1 and 2 g)", "value": 5},
      {"measurement": "Moderate or Severe AEs, Number of Events", "setting": "[3]; Pooled Meropenem (1 and 2 g)", "value": "[5]"},
      {"measurement": "Subjects with at least one Treatment Emergent AE, %", "setting": "[3]; Pooled Meropenem (1 and 2 g)", "value": 95, "unit": "%"},
      {"measurement": "Mild nausea", "setting": "[3]; alone or in combination", "value": "observed only in the subjects who received meropenem 2 g"}
    ]}
  ]
}
